Data: the NIST ThermoML archive (doi:10.1021/je400679k)
Numbers after ± are expanded uncertainties.

How the values were obtained:
[1] = 101 kPa, Liquid, Vibrating tube method
[2] = xn = mol fraction of the nth substance listed; details: 101 kPa, Liquid, Vibrating tube method, x2 = 0

Row | Structure (SMILES) | mass density ([1]; 283.15 K) | mass density ([1]; 333.15 K) | mass density ([1]; 343.15 K) | mass density ([1]; 353.15 K) | mass density ([1]; 363.15 K) | mass density ([1]; 293.15 K) | mass density ([1]; 303.15 K) | mass density ([1]; 313.15 K) | mass density ([1]; 323.15 K) | mass density ([2]; 283.15 K) | mass density ([2]; 333.15 K) | mass density ([2]; 343.15 K) | mass density ([2]; 353.15 K) | mass density ([2]; 363.15 K) | mass density ([2]; 293.15 K) | mass density ([2]; 303.15 K) | mass density ([2]; 313.15 K) | mass density ([2]; 323.15 K)
1 | O [water] | 999.701 ± 0.033 kg/m3 | 983.197 ± 0.041 kg/m3 | 977.76 ± 0.043 kg/m3 | 971.788 ± 0.046 kg/m3 | 965.305 ± 0.048 kg/m3 |  |  |  |  |  |  |  |  |  |  |  |  | 
2 | CN(C)CCO [2-(N,N-dimethylamino)ethanol] | 894.959 ± 0.11 kg/m3 | 851.72 ± 0.13 kg/m3 | 842.604 ± 0.13 kg/m3 | 833.288 ± 0.13 kg/m3 | 823.754 ± 0.14 kg/m3 | 886.56 ± 0.12 kg/m3 | 878.059 ± 0.12 kg/m3 | 869.428 ± 0.12 kg/m3 | 860.655 ± 0.12 kg/m3 |  |  |  |  |  |  |  |  | 
3 | CN(CCO)CCO [N-methyldiethanolamine] |  | 1009.51 ± 0.86 kg/m3 | 1001.73 ± 0.84 kg/m3 | 993.889 ± 0.83 kg/m3 | 985.958 ± 0.82 kg/m3 | 1040.06 ± 0.92 kg/m3 | 1032.47 ± 0.9 kg/m3 | 1024.86 ± 0.89 kg/m3 | 1017.21 ± 0.87 kg/m3 |  |  |  |  |  |  |  |  | 
4 | CNCCCN [N-methyl-1,3-diaminopropane] | 860.459 ± 0.68 kg/m3 | 815.559 ± 0.64 kg/m3 | 806.37 ± 0.63 kg/m3 | 797.093 ± 0.62 kg/m3 | 787.723 ± 0.61 kg/m3 | 851.605 ± 0.67 kg/m3 | 842.69 ± 0.67 kg/m3 | 833.715 ± 0.66 kg/m3 | 824.673 ± 0.65 kg/m3 |  |  |  |  |  |  |  |  | 
5 | O [water] + CNCCCN |  |  |  |  |  |  |  |  |  | 999.701 ± 0.033 kg/m3 | 983.197 ± 0.041 kg/m3 | 977.76 ± 0.043 kg/m3 | 971.788 ± 0.046 kg/m3 | 965.305 ± 0.048 kg/m3 |  |  |  | 
6 | CN(CCO)CCO [N-methyldiethanolamine] + CNCCCN |  |  |  |  |  |  |  |  |  |  | 1009.51 ± 0.86 kg/m3 | 1001.73 ± 0.84 kg/m3 | 993.889 ± 0.83 kg/m3 | 985.958 ± 0.82 kg/m3 | 1040.06 ± 0.92 kg/m3 | 1032.47 ± 0.9 kg/m3 | 1024.86 ± 0.89 kg/m3 | 1017.21 ± 0.87 kg/m3
7 | CCN(CC)CCO [(diethylamino)ethanol] + CNCCCN |  |  |  |  |  |  |  |  |  | 894.423 ± 0.23 kg/m3 | 847.839 ± 0.23 kg/m3 | 838.157 ± 0.23 kg/m3 | 828.488 ± 0.23 kg/m3 | 818.597 ± 0.24 kg/m3 | 885.356 ± 0.23 kg/m3 | 876.155 ± 0.23 kg/m3 | 866.828 ± 0.23 kg/m3 | 857.388 ± 0.23 kg/m3
8 | CCN(CC)CCO [(diethylamino)ethanol] | 894.423 ± 0.23 kg/m3 | 847.839 ± 0.23 kg/m3 | 838.157 ± 0.23 kg/m3 | 828.488 ± 0.23 kg/m3 | 818.597 ± 0.24 kg/m3 | 885.356 ± 0.23 kg/m3 | 876.155 ± 0.23 kg/m3 | 866.828 ± 0.23 kg/m3 | 857.388 ± 0.23 kg/m3 |  |  |  |  |  |  |  |  | 
9 | CN(C)CCO [2-(N,N-dimethylamino)ethanol] + CNCCCN |  |  |  |  |  |  |  |  |  | 894.959 ± 0.11 kg/m3 | 851.72 ± 0.13 kg/m3 | 842.604 ± 0.13 kg/m3 | 833.288 ± 0.13 kg/m3 | 823.754 ± 0.14 kg/m3 | 886.56 ± 0.12 kg/m3 | 878.059 ± 0.12 kg/m3 | 869.428 ± 0.12 kg/m3 | 860.655 ± 0.12 kg/m3
